Laboratory results published in patent publication US10543223B2, “Mannose derivatives useful for treating pathologies associated with adherent E. coli” (ENTEROME, priority 2015, dated 2020).
In brackets after ≈: the same amount, converted by molar mass. Blank lines part the entries; values can stand above or below the molecule they belong to.

Tests used:
[1] = test system: uropathogenic E. coli strain UTI89; assay: Hemagglutination inhibition assay, guinea pig erythrocytes, E. coli strain UTI89; assay type: cell-based; conditions: for MIC: Escherichia coli, read-out: minimal inhibitory concentration (MIC) / inhibition titer of haemagglutination; for inhibition of UTI89-induced hemagglutination (in words): FIG. 1
Procedure: Interaction of E. coli FimH adhesins with the glycocalyx of guinea pig erythrocytes forms a crosslinked network in the wells. Glycoconjugates, added in a 2-fold dilution series, prevent the agglutination reaction. The inhibition titer is defined as the lowest concentration of the glycoconjugate at which hemagglutination is still inhibited. Several strains of E. coli were grown statically overnight in LB at 37° C., washed three times in ice-cold phosphate-buffered saline, and redissolved. A 2-fold dilution of glycoconjugates with a starting concentration of 1 mM was prepared in 25 μL of PBS with 10% of DMSO. Importantly, the pipet tip was changed at every dilution step to avoid carry-over. Next, the bacterial solution (25 μL) was added to the 2-fold dilution series of the compound. Finally, 50 μL of guinea pig red blood cells, washed and diluted in the buffer to 5% of the blood volume, was added to reach 100 μL. The plates were left on ice for one night before read-out.
Inhibition of E. coli Strain UTI89 Isolated from Patient with Urinary Tract Infection.
The anti-adhesive capacity of the inhibitors was evaluated against ten E. coli strains isolated from CD patients, urinary tract infections, and hip prosthesis infections.

[2] = Faeces concentrations and recovery after IV and PO administration to rats; assay type: in vivo, Sprague Dawley rats; conditions: Sprague Dawley, rat, faeces, po, 10 mg/kg, PO 10 mg/kg, 0-24 h, mean of 3 rats; read-out: Recovery in faeces, mean (quantity found in faeces out of the administered quantity)
Procedure: Plasma and faeces concentrations after administration of Compound 1b and for compound 13 of WO 2014/016361 at 1 mg/kg by intravenous route and 10 mg/kg by oral route to Sprague Dawley rats Blank rat faeces are homogenized with 3 volumes of UHQ water until obtention of a paste. Then 100 μL of the homogenate are spiked with the molecules and precipitated with 300 μL of acetonitrile. The concentration ranges tested are: • 0.5 ng/mL to 1000 ng/mL for plasma, • 4 to 2000 ng/g for faeces, corresponding to 1 to 500 ng/mL of faeces homogenate. 3. In-Life Part After administration, the animals are placed in individual metabolic cages in order to collect faeces samples during 24 hours. Faeces samples are collected over the 24 hours of the experiment. They are precisely weighed and 3 volumes of UHQ water are added. The mixture is homogeneized until obtention of a paste. Then 100 μL of the homogenate are taken and extracted with 300 μL of Acetonitrile. Analysis is performed using LC-MS/MS determination according to previous analytical test results.

[3] = test system: cystitis murine model; conditions: Wellens et al, 2008; cited from earlier work
[4] = test system: AIEC; conditions: in vivo; cited from earlier work
[5] = Stability test in 0.1 M HCl (anomerization followed by 1H NMR); assay type: physicochemical; conditions: for isomerization to the β-mannose derivative under acidic conditions: samples at t=0, 1 h, 2 h and 8 h, 1H NMR in D2O
Procedure: Compound 6 of WO 2014/016361 was dissolved in 0.1 M HCl and sample were freeze dried at t=0, 1 h, 2 h and 8 h (see FIG. 10). […] Indeed, under the acidic conditions, an equimolar α/β mixture at T=0 anomerize to a 1/3 α/β mixture at T=8 h.

[6] = target: T1, FimH lectin domain (residues 1-158) from E. coli strain UTI89 (Escherichia coli, UniProt Q1R2J4); assay: Isothermal titration calorimetry of FimH lectin domain; assay type: binding
T1 construct: FimH lectin domain (residues 1-158) from E. coli strain UTI89; made in house
Procedure: The recombinantly expressed FimH lectin domain (residues 1-158) from E. coli strain UTI89 was purified as described previously by Wellens et al. The FimH protein solution was put into the measurement cell (1452 μl) of a VP-ITC microcalorimeter (Malvern), at a concentration of 11.83 μM in the ITC working buffer (20 mM Na-Hepes at pH 7.4 and 150 mM NaCl). Compound 3c at 100 μM concentration was titrated into the FimH solution using 38 injections of 7 μl, leading to 38 heat peaks measured in μcal/sec (FIG. 12). The heat peaks were integrated (kCal/mole of injectant) to be presented in an enthalpogram with 38 data points (FIG. 12), used for the fitting to the model of one kind of binding sites (Microcal ITC Origin software) in order to derive the affinity (K) and the stoichiometry (N) of the interaction (FIG. 13). Using the constant absolute temperature (T) of the experiment, the entropic contribution ΔS was calculated (FIG. 13).

[7] = test system: AIEC strain LF82; assay: Adhesion assay of AIEC LF82 strain on intestinal epithelial cells T84 (pre- and post-incubation); assay type: cell-based, E. coli; conditions: pre-incubation (10 μM) and post-incubation (50 μM) protocols
Procedure: E. coli strain LF82 isolated from an ileal biopsy of a CD patient was used as the AIEC reference strain. Bacteria were grown overnight at 37° C. in Luria-Bertani (LB) broth, and a bacterial suspension was prepared at a concentration of 1.5×10^8 bacteria/mL in phosphate buffer saline (PBS) for adhesion assays. The human intestinal cell line T84, purchased from American Type Culture Collection (ATCC, CCL-248), was maintained in an atmosphere containing 5% CO2 at 37° C. in the culture medium recommended by ATCC. T84 cells were seeded in 48-well tissue culture plates at a density of 1.5×10^5 cells/well and incubated at 37° C. for 48 h.
AIEC reference strain LF82 was incubated for 1 h with HM or thiazole-bearing mannosides at final concentrations of 0.1, 1, or 10 μM, then bacteria/mannosides solution were incubated with T84 cells in order to have a multiplicity of infection (MOI) of 10 bacteria per cell (1.5×10^6 bacteria/well) for 3 h with. Effects of mannoside treatment were compared with HM. Monolayers were washed three times with PBS and lysed with 1% Triton X-100 (Sigma) in deionized water. Samples were diluted and plated onto LB agar plates to determine the number of colony-forming units (CFU). […]

Structure (SMILES): CC(=O)c1cnc(NC[C@H]2O[C@H](CO)[C@@H](O)[C@H](O)[C@@H]2O)s1 [Compound 2c]
potency relative to HM at disrupting E. coli promoted hemagglutination ([1]; E. coli UTI89): 8 fold | MIC [1]: 0.098 µM (≈ 0.0312 µg/mL) | inhibition of UTI89-induced hemagglutination (in words) [1]: potent inhibitors

dose excreted [2]: 52.4%
Structure (SMILES): Cc1nc(-c2cnccn2)sc1C(=O)c1cnc(N[C@H]2O[C@H](CO)[C@@H](O)[C@H](O)[C@@H]2O)s1 [Compound 13 of WO 2014/016361, reference compound]

Structure (SMILES): CCCCCCCO[C@H]1O[C@H](CO)[C@@H](O)[C@H](O)[C@@H]1O [HM, heptylmannose]
inhibition of UTI89-induced hemagglutination (in words) [1]: potent inhibitors | concentration required to observe a significant bacterial load reduction [3]: millimolar | effect with AIEC in CEABAC 10 Crohn's disease model [4]: no effect

α/β mixture ratio ([5]; T=8 h, equimolar α/β mixture at T=0): 1/3
Structure (SMILES): CC(=O)c1cnc(N[C@H]2O[C@H](CO)[C@@H](O)[C@H](O)[C@@H]2O)s1 [6 of WO 2014/016361]
isomerization to the β-mannose derivative under acidic conditions [5]: isomerizes to the corresponding β-mannose derivative

Structure (SMILES): Cc1nc(NCc2cn(CC3OC(CO)C(O)C(O)C3O)nn2)sc1C(=O)c1cnc(NCC2OC(CO)C(O)C(O)C2O)s1 (centres unmarked) [Compound 3c]
Kd [6]: 54.6 nM | ΔH ([6]; ITC): -23.630 ± 0.3755 kcal/mol | ΔS ([6]; ITC, calculated using T of the experiment): −46.8 cal/mol/deg | n (stoichiometry) ([6]; ITC, one kind of binding sites model): 0.874+/−0.00868 sites

isomerization to the β-mannose derivative under acidic conditions [5]: does not isomerize
Structure (SMILES): CC(=O)c1cnc(C[C@H]2O[C@H](CO)[C@@H](O)[C@H](O)[C@@H]2O)s1 [Compound 1a, 5-acetyl-2-((α-D-mannopyranos-1-yl)methyl)thiazole]

Structure (SMILES): CC(=O)c1cnc(SC[C@H]2O[C@H](CO)[C@@H](O)[C@H](O)[C@@H]2O)s1 [Compound 2b, 5-acetyl-2-((α-D-mannopyranos-1-yl)methylthioxy)thiazole]
potency to inhibit attachment of LF82 to T84 cells compared with heptylmannoside [7]: more potent than the reference compound heptylmannoside

Structure (SMILES): Cc1nc(-c2cnccn2)sc1C(=O)c1cnc(NC[C@H]2O[C@H](CO)[C@@H](O)[C@H](O)[C@@H]2O)s1 [Compound 2d, 5-(4-methyl-2-(pyrazin-2-yl)thiazol-5-ylcarbonyl)-2-(((α-D-mannopyranosyl)methyl)amino)-thiazole]
MIC [1]: 3.12 µM (≈ 1.5 µg/mL) | inhibition of UTI89-induced hemagglutination (in words) [1]: potent inhibitors
